Measured values reported in PubChem BioAssay AID330 (DTP/NCI, 2004).
Where “and” joins values, the source holds several entries; their conditions need not be identical. Identical values can stand only once. Inconclusive results and toxic doses are left out. How the source made its calls: active means survival T/C of 150% or more; inactive means T/C below 125% in these data.

Test system: P388 leukemia ip, CD2F1 mice, survival T/C
Assay: NCI In Vivo Anticancer Drug Screen. Data for tumor model P388 Leukemia (intraperitoneal) in CD2F1 (CDF1) mice
Details: endpoint: median survival time, higher = longer survival
Outline: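 Mice carrying the transplanted tumor received test compound or vehicle. Survival was recorded in each group, and the value is the treated-group measurement divided by that of the vehicle-treated control group.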

[1] = dose: 25.0 mg/kg/injection, schedule: Q01DX009 (ip), vehicle: saline with Tween-80
[2] = dose: 50.0 mg/kg/injection, schedule: Q01DX009 (ip), vehicle: saline with Tween-80
[3] = dose: 12.5 mg/kg/injection, schedule: Q01DX009 (ip), vehicle: saline with Tween-80
[4] = dose: 60.0 mg/kg/injection, schedule: Q01DX005 (ip), vehicle: saline
[5] = dose: 120.0 mg/kg/injection, schedule: Q01DX005 (ip), vehicle: saline
[6] = dose: 240.0 mg/kg/injection, schedule: Q01DX005 (ip), vehicle: saline
[7] = dose: 50.0 mg/kg/injection, schedule: Q01DX005 (ip), vehicle: Klucel (hydroxypropylcellulose) (HPC)
[8] = dose: 100.0 mg/kg/injection, schedule: Q01DX005 (ip), vehicle: Klucel (hydroxypropylcellulose) (HPC)
[9] = dose: 200.0 mg/kg/injection, schedule: Q01DX005 (ip), vehicle: Klucel (hydroxypropylcellulose) (HPC)
[10] = dose: 60.0 mg/kg/injection, schedule: Q01DX005 (ip), vehicle: saline with Tween-80
[11] = dose: 120.0 mg/kg/injection, schedule: Q01DX005 (ip), vehicle: saline with Tween-80
[12] = dose: 240.0 mg/kg/injection, schedule: Q01DX005 (ip), vehicle: saline with Tween-80
[13] = dose: 100.0 mg/kg/injection, schedule: Q01DX009 (ip), vehicle: saline with Tween-80
[14] = dose: 100.0 mg/kg/injection, schedule: Q01DX001 (ip), vehicle: saline with Tween-80
[15] = dose: 200.0 mg/kg/injection, schedule: Q01DX001 (ip), vehicle: saline with Tween-80
[16] = dose: 400.0 mg/kg/injection, schedule: Q01DX001 (ip), vehicle: saline with Tween-80
[17] = dose: 60.0 mg/kg/injection, schedule: Q01DX005 (ip), vehicle: Klucel (hydroxypropylcellulose) (HPC)
[18] = dose: 120.0 mg/kg/injection, schedule: Q01DX005 (ip), vehicle: Klucel (hydroxypropylcellulose) (HPC)
[19] = dose: 240.0 mg/kg/injection, schedule: Q01DX005 (ip), vehicle: Klucel (hydroxypropylcellulose) (HPC)
[20] = dose: 200.0 mg/kg/injection, schedule: Q01DX009 (ip), vehicle: saline with Tween-80

Measured: T/C

CCCCN(CCCC)CC(O)c1c(OC)c2cc(Cl)ccc2c2ccc(Cl)cc12 (centres undefined)
inactive: [1] 94 % of control | [2] 100 % of control

Cc1ccc(S(=O)(=O)N2CC3CC=C(Cc4ccnc5ccccc45)CC(C2)C3=O)cc1 (centres undefined)
inactive: dose: 100.0 mg/kg/injection, schedule: Q04DX003 (ip), vehicle: Klucel (hydroxypropylcellulose) (HPC) 105 % of control | dose: 200.0 mg/kg/injection, schedule: Q04DX003 (ip), vehicle: Klucel (hydroxypropylcellulose) (HPC) 91 % of control | dose: 400.0 mg/kg/injection, schedule: Q04DX003 (ip), vehicle: Klucel (hydroxypropylcellulose) (HPC) 96 % of control

O=C(CBr)c1cccc(OC(=O)c2ccccc2)c1
inactive: dose: 6.25 mg/kg/injection, schedule: Q01DX009 (ip), vehicle: saline with Tween-80 108 % of control | [3] 108 % of control

CC(CO)NC(=O)C1C=C2c3cccc4[nH]cc(c34)CC2N(C)C1 (centres undefined)
inactive: dose: 9.0 mg/kg/injection, schedule: Q01DX009 (ip), vehicle: saline 97 % of control | dose: 18.0 mg/kg/injection, schedule: Q01DX009 (ip), vehicle: saline 91 % of control | dose: 44.5 mg/kg/injection, schedule: Q01DX009 (ip), vehicle: saline 97 % of control | dose: 89.0 mg/kg/injection, schedule: Q01DX009 (ip), vehicle: saline 97 % of control | dose: 178.0 mg/kg/injection, schedule: Q01DX009 (ip), vehicle: saline 106 % of control

C/C(C/C(C)=N/C(N)=S)=N\C(N)=S
inactive: [4] 100 % of control | [5] 95 % of control | [6] 100 % of control

IP1c2ccccc2P2P(I)c3ccccc3P12 (centres undefined)
inactive: [7] 102 % of control | [8] 108 % of control | [9] 105 % of control

CC1CCC(C(C)C)C(OC(=O)c2cccc[n+]2C)C1 (centres undefined)
inactive: dose: 3.75 mg/kg/injection, schedule: Q01DX005 (ip), vehicle: saline 107 % of control | dose: 7.5 mg/kg/injection, schedule: Q01DX005 (ip), vehicle: saline 103 % of control | dose: 15.0 mg/kg/injection, schedule: Q01DX005 (ip), vehicle: saline 110 % of control | dose: 30.0 mg/kg/injection, schedule: Q01DX005 (ip), vehicle: saline 104 % of control and 119 % of control

COc1ccc(C(c2cc3c(cc2O)OCO3)n2ccnc2)cc1 (centres undefined)
inactive: [10] 99 % of control | [11] 99 % of control | [12] 96 % of control

O=C1c2ccccc2C(=O)C1C(=Nc1ccccc1Cl)c1ccccc1
inactive: dose: 12.5 mg/kg/injection, schedule: Q01DX005 (ip), vehicle: Klucel (hydroxypropylcellulose) (HPC) 90 % of control | dose: 25.0 mg/kg/injection, schedule: Q01DX005 (ip), vehicle: Klucel (hydroxypropylcellulose) (HPC) 88 % of control | [7] 86 % of control | [8] 94 % of control

CCOC(=O)C1=C(Nc2ccc(F)cc2)C(=O)N(C(C)(C)C)C1
inactive: [10] 100 % of control | [11] 106 % of control | [12] 93 % of control

C=C(C)C1CC=C(/C=N/O)CC1 (centres undefined)
inactive: [13] 100 % of control | dose: 400.0 mg/kg/injection, schedule: Q01DX009 (ip), vehicle: saline with Tween-80 91 % of control

CC(=O)n1c(Cl)c(/C=N/NC(N)=S)c2ccccc21
inactive: [14] 86 % of control | [15] 94 % of control | [16] 100 % of control

O=C1C(N2CC2)=C(N2CC2)C(=O)C(N2CC2)=C1N1CC1
inactive: dose: 1.8 micrograms/kg/injection, schedule: Q01DX009 (ip), vehicle: saline 110 % of control | dose: 2.7 micrograms/kg/injection, schedule: Q01DX009 (ip), vehicle: saline 115 % of control | dose: 4.0 micrograms/kg/injection, schedule: Q01DX009 (ip), vehicle: saline 112 % of control

CC(C)Cc1cc(-c2cc(CC(C)C)nc(N)n2)nc(N)n1
inactive: [4] 100 % of control | [5] 90 % of control

CCOP(=O)(OCC)C(=O)c1ccccc1
inactive: [4] 100 % of control | [5] 103 % of control | [6] 105 % of control

CCC1(C(=O)Sc2ccccc2)OC1c1ccccc1 (centres undefined)
inactive: dose: 100.0 mg/kg/injection, schedule: Q01DX001 (ip), vehicle: Klucel (hydroxypropylcellulose) (HPC) 89 % of control | dose: 200.0 mg/kg/injection, schedule: Q01DX001 (ip), vehicle: Klucel (hydroxypropylcellulose) (HPC) 90 % of control | dose: 400.0 mg/kg/injection, schedule: Q01DX001 (ip), vehicle: Klucel (hydroxypropylcellulose) (HPC) 90 % of control

CCCOc1ccc2c(NCCCCNc3c4ccccc4nc4cc(OCCC)ccc34)c3ccccc3nc2c1
inactive: dose: 0.62 mg/kg/injection, schedule: Q01DX009 (ip), vehicle: other 98 % of control | dose: 1.25 mg/kg/injection, schedule: Q01DX009 (ip), vehicle: other 109 % of control | dose: 2.5 mg/kg/injection, schedule: Q01DX009 (ip), vehicle: other 98 % of control | dose: 5.0 mg/kg/injection, schedule: Q01DX009 (ip), vehicle: other 107 % of control | dose: 10.0 mg/kg/injection, schedule: Q01DX009 (ip), vehicle: other 107 % of control

COc1ccc(C(=O)C(=O)c2ccccc2)cc1
inactive: [17] 105 % of control | [18] 100 % of control | [19] 98 % of control

CCCC(O)(CCC)/C(C)=N/O
inactive: [3] 99 % of control | [1] 107 % of control | [2] 87 % of control and 98 % of control | [20] 88 % of control

COC(=O)c1ccc(O)cc1C1(Cl)CC1
inactive: [17] 108 % of control | [18] 102 % of control | [19] 100 % of control

Cn1c(=O)c2c(c3cc(O)ccc31)OC(C(C)(C)O)C2 (centres undefined)
inactive: [7] 95 % of control | [8] 96 % of control | [9] 86 % of control

COc1ccccc1C1OC(c2ccccc2OC)C2CCN(C)C2(C)O1 (centres undefined)
inactive: dose: 100.0 mg/kg/injection, schedule: Q04DX002 (ip), vehicle: saline with Tween-80 92 % of control | dose: 200.0 mg/kg/injection, schedule: Q04DX002 (ip), vehicle: saline with Tween-80 91 % of control | dose: 400.0 mg/kg/injection, schedule: Q04DX002 (ip), vehicle: saline with Tween-80 101 % of control

O=C1C2C3C=CC(C2C(=O)N1c1ccccc1)C1C2C(=O)N(c4ccccc4)C(=O)C2C31 (centres undefined)
inactive: [14] 88 % of control | [15] 89 % of control | [16] 93 % of control

Nc1nc(/C=C(/O)c2ccccc2)c2ncn(C3OC(CO)C(O)C3O)c2n1 (centres undefined)
inactive: [2] 106 % of control | [13] 103 % of control | [20] 114 % of control

CCN(CC)c1ccc(/C=N/Nc2c3c(nc4ccccc24)CCCC3)cc1
inactive: dose: 6.25 mg/kg/injection, schedule: Q01DX005 (ip), vehicle: saline 100 % of control | dose: 12.5 mg/kg/injection, schedule: Q01DX005 (ip), vehicle: saline 99 % of control

COc1ccc(N=Nc2c(-c3ccccc3)nn(C(=S)SC)c2-c2ccccc2)cc1
inactive: [14] 92 % of control | [15] 95 % of control | [16] 108 % of control

CCOC(=O)c1ccc(NC(=O)N2CCCCC2C)cc1 (centres undefined)
inactive: [17] 104 % of control | [18] 89 % of control | [19] 97 % of control

O=C(NCCCl)Nc1[nH]c(=O)ncc1Br
inactive: [10] 104 % of control | [11] 102 % of control | [12] 112 % of control

O=[N+]([O-])c1ccc2[nH]ncc2c1
inactive: [2] 100 % of control | [13] 100 % of control | [20] 110 % of control
